Test results from publication PMC8491018, “Improved virus-induced gene silencing allows discovery of a serpentine synthase gene in Catharanthus roseus” (Plant Physiology, 2021).

Experiments:
[1] = target: T1, serpentine synthase (SS, CrSS) (Catharanthus roseus, UniProt A0A8F5R546); test: LC-MS of product alstonine, yeast cultures expressing CrSS and yeast microsomes; assay type: biochemical; details: 30 uM substrate; microsomes: 150 uM NADPH, HEPES-NaOH pH 7.5, 30 C, 60 min; AaCPR co-expressed
T1 construct: predicted TM helix aa 7-24 FWSLPAIALLQVFLFFLF; 6HIS version (in planta) about 59 kDa
T1 sequence (A0A8F5R546 1-511): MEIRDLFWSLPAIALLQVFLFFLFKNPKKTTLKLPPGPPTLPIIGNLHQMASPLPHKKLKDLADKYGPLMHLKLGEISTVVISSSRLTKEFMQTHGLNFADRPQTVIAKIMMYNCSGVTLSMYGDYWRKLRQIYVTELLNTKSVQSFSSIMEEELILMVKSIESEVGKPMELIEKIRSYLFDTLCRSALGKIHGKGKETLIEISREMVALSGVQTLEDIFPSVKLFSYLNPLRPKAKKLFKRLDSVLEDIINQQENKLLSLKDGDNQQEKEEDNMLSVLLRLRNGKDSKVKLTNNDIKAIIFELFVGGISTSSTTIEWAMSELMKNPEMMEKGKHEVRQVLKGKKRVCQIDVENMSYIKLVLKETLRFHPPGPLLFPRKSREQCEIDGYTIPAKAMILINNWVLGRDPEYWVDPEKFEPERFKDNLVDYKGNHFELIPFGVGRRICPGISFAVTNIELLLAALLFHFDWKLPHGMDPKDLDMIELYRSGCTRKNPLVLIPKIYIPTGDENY

[2] = target: T1, serpentine synthase (SS, CrSS); test: LC-MS of product serpentine, yeast cultures expressing CrSS and yeast microsomes; assay type: biochemical; details: 30 uM substrate; microsomes: 150 uM NADPH, HEPES-NaOH pH 7.5, 30 C, 60 min; AaCPR co-expressed

| Compound | LC-MS of product alstonine, yeast cultures expressing CrSS and yeast microsomes [1] | LC-MS of product serpentine, yeast cultures expressing CrSS and yeast microsomes [2] |
| --- | --- | --- |
| COC(=O)C1=CO[C@@H](C)[C@@H]2CN3CCc4c([nH]c5ccccc45)[C@@H]3C[C@H]12 [THA] | this cytochrome P450 could also produce alstonine from THA |  |
| COC(=O)C1=CO[C@@H](C)[C@H]2CN3CCc4c([nH]c5ccccc45)[C@@H]3C[C@H]12 [ajmalicine] |  | CrSS produced serpentine from ajmalicine when incubated in the media of yeast cultures expressing CrSS |
